Read-outs that look alike come from different tables or passages of the source.
Columns and labels:
WI38 cells = experiment: SA-β-galactosidase colorimetric assay on senescent WI38; format: cell-based, Homo sapiens
Protocol: (§1) Previously treated cells were fixed according to the protocols established by the supplier (Cell Signaling). The images were acquired using an optical microscope (Leica) with 5× and 10× magnification (MAG) or the phase microscopy EVOS XL Core at 10× MAG and analyzed using the ImageJ software. The mean signal intensity was then normalized for the total number of cells.
(§2) β-galactosidase colorimetric assay. For cell cultures: Previously treated cells were fixed with the fixative solution for 10 min at RT according to the protocols established by the supplier (Senescence β-Galactosidase Staining Kit, #9860S, Cell Signaling, Danvers, MA, USA) Cells were then incubated with the substrate, X-gal, in a solution at pH 6, at 37°C, overnight (16 h) (Itahana et al. 2007). The images were acquired using an optical microscope (Leica, Wetzlar, Germany) with 5 and 10X magnification or the phase microscopy EVOS XL Core at 10X magnification. The images were analyzed using the ImageJ software, quantifying the colorimetric signal emitted by each cell. The mean signal intensity was then normalized for the total number of cells.

[1] = test system: Human mesenchymal stem cells (MSCs); experiment: MTT viability of Doxorubicin-induced senescent and non-senescent MSCs; format: cell-based; conditions: for EC50: Homo sapiens, Mesenchymal stem cells, MTT
Description: IMR90 and WI38 lung fibroblasts were purchased from ECACC‐Merck. Human bone marrow (BM)‐derived mesenchymal stromal cells (MSCs) were purchased from Lonza. Human umbilical vein endothelial cells (HUVECs) are primary cells obtained from a pool of donors purchased from Clonetics (Lonza). Murine ear fibroblasts (MearFs) were obtained from C57BL/6J mice maintained in the INRCA “Specific Pathogen Free” (SPF) animal facility. MCF7 breast cancer cells were purchased from ATCC. For dose–response curves, IMR90 and WI38 were induced to senescence through replicative passages; MSCs, HUVECs, and MearFs senescence was induced with Doxorubicin; MCF7 senescence was induced with 4‐Hydroxytamoxifen (Lee et al. [2014]). The EC50 was calculated using GraphPad Prism 10 software. All treatment specifications are reported in the extended section.
Cell viability was determined using an MTT assay. Absorbance was measured using a NB‐12‐0035 Microplate Reader (NeoBiotech Co.). Data are expressed as a percentage of viability compared with untreated cells.
Human bone marrow (BM)-derived mesenchymal stromal cells (MSCs) were purchased from Lonza (Allendale, NJ, USA) and cultured in α-MEM (Euroclone, Milano, Italy), with 10% fetal bovine serum (FBS, Lonza, Stein, Switzerland), 100 U/mL penicillin, […] streptomycin and 2 mM L-glutamine. Cells were seeded at a density of 5000/cm^2 and maintained at 37°C in a humidified atmosphere with 5% CO2. The culture medium was changed at 48 h intervals, and cells were trypsinized when almost 80% were confluent using 0.25% trypsin-EDTA (Euroclone, Milano, Italy). […]
Cell viability assay. Cell viability has been determined with MTT (3-(4,5-dimethylthiazol-2-yl)-2, 5-diphenyltetrazolium bromide) assay. […] Insoluble formazan salts produced were solubilized with DMSO incubation, and then absorbance was measured at 540 nm using a microplate reader (NB-12-0035 Microplate Reader, NeoBiotech Co., Seoul, Republic of Korea). Data are expressed as a percentage of viability compared with untreated cells (the control group has been considered 100% of viability).

MCF7 cells = experiment: Annexin V staining of senescent MCF7 (Incucyte); format: cell-based, Homo sapiens; conditions: Tamoxifen-induced senescent MCF7, K5 10 μM, after 24 h, over 96 h
Protocol: Senescent MCF7 cells were treated with K5 and Incucyte Annexin V NIR Dye (Sartorius). Cells were monitored using the Incucyte live‐cell Analysis system (Sartorius). Images were acquired using the phase microscopy EVOS XL Core at 10× magnification and analyzed using the ImageJ software.
Annexin V staining. MCF7 were plated 24 h before the treatment with 4-Hydroxytamoxifen (TAM) 10 μM for 96 h to induce the senescence described by (Lee et al. 2014). Control cultures were treated with equal volumes of 75% ethanol as the vehicle. Then, cells were washed and treated with the senolytic drug K5 10 µM and DMSO as solvent control for another 96 h and with the Incucyte Annexin V NIR Dye (1:200, Sartorius). Cells were monitored using the Incucyte live-cell Analysis system (Sartorius). The images were acquired using the phase microscopy EVOS XL Core at 10X magnification and analyzed using the ImageJ software. The mean signal intensity was then normalized for the total number of cells.

IMR90 cells = experiment: SA-β-galactosidase colorimetric assay on senescent IMR90; format: cell-based, Homo sapiens
Protocol: as §1, §2

## Cc1ccccc1-n1c(=O)n(Cc2ccccc2)c(=O)c2[nH]cnc21 [Compound K5, 1-benzyl-3-(2-methylphenyl)-7H-purine-2,6-dione]
WI38 cells
  reduced SA-β-gal+ cells: 10%
[1]; DNA damage (Doxorubicin)
  Senolytic evidence (no, partly/yes): Partly
[1]; DNA damage (Doxorubicin), read-out: EC50 senescent cells
  EC50: > 200 µM
[1]; read-out: EC50 proliferating cells
  EC50: > 500 µM
MCF7 cells
  Annexin V signal: significant and stable increase
IMR90 cells
  reduced SA-β-gal+ cells: 20%
